Assay results taken from patent EP4782449A1, “TRICYCLIC PYRIDINE COMPOUND ACTING AS SARM1 ENZYME ACTIVITY INHIBITOR, AND USE THEREOF” (Artivila (ShenZhen) Innovation Center, Ltd., priority 2023, dated 2025).
Where two headings read alike, the source gives them in different places.

Columns and labels:
[1] = target: T1, SARM1 (Homo sapiens, UniProt Q6SZW1); assay: In vitro biochemical assay for inhibiting SARM1 enzyme activity (PC6 fluorescence, NADase); conditions: full-length SARM1 from transfected HEK293 cells, 50 µM NAD, 50 µM PC6, 50 µM NMN activator, room temperature, 30 minutes
T1 construct: inventors produced full-length SARM1 for NAD enzyme activity experiments, and used it for screening; His (C); made in house; host or cells: HEK293 cells, transient transfection; supernatant of digitonin lysate, no further purification described
T1 sequence (Q6SZW1 28-724): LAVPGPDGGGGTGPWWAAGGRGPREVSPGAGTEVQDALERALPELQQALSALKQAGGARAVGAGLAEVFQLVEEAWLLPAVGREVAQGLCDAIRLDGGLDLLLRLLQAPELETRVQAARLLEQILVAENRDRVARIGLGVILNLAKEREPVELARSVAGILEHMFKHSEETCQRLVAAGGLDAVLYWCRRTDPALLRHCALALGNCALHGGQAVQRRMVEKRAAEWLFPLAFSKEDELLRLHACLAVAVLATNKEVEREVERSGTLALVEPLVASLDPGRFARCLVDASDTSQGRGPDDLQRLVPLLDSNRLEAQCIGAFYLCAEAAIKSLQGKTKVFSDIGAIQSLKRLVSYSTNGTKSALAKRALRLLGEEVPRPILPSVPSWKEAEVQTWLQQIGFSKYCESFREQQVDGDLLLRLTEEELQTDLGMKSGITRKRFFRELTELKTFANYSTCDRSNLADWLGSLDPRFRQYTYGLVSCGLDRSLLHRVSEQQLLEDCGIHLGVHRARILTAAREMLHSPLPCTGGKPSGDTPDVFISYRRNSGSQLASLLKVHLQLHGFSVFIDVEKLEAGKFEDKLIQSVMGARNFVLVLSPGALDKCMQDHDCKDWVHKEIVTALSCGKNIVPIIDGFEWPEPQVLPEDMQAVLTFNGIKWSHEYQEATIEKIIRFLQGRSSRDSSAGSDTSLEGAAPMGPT
Experimental: The gene sequence of SARM1 protein was amplified using PCR, and the PCR amplification product was constructed into pcDNA3.1-HIS-C plasmid. The above construction was completed by YouBio(Hunan, China). HEK293 cells were cultured in 10 cm dishes using DMEM, and the cells were transfected with 15 μg pcDNA3.1-SARM[…]-C expression plasmid on the following day. Cells were collected 48 hours after transfection, and SARM1 protein expressed in the cells was obtained by digitonin lysis for in vitro activity assay experiments. The specific procedure was as follows: Cells were digested with trypsin-EDTA, then centrifuged at 1000 rpm for 5 minutes, washed once with PBS, and then resuspended in PBS containing 100 μM digitonin, with 0.6 mL PBS for the cells in per 10 cm dish, and lysed for 5 minutes. […] Then the supernatant containing SARM1 protein was collected by centrifugation at 5000 rpm for 10 minutes. […] A group without inhibitor was used as control group. All mixtures were incubated at room temperature for 10 minutes. Then, 50 μM NAD and 50 μM PC6 as substrates and 50 μM NMN as an activator were added to the SARM1 protein incubated with the inhibitor, and the reaction was carried out at room temperature for 30 minutes. The concentrations of each component were the final concentrations in the reaction system. […] Finally, the reaction rate was used to represent the protein activity and calculate the half-maximal inhibitory concentration.

[2] = test system: dorsal root ganglion explants; assay: Axonal Wallerian degeneration assay in mouse DRG explant culture; format: cell-based, C57BL/6 male mice; conditions: 10 µM test compound, 2 hours pretreatment, axons transected, images at 0 hour and 24 hours
Source text: The experimental method was based on Gerdts J et al. (Gerdts J, Sasaki Y, Vohra B, Marasa J, Milbrandt J. Image-based screening identifies novel roles for IkappaB kinase and glycogen synthase kinase 3 in axonal degeneration. J Biol Chem. 2011 Aug 12;286(32):28011-8).
Dorsal root ganglia were dissected from 2-month-old C57BL/6 male mice and placed in 35 mm culture dishes containing pre-cooled HBSS buffer. Excess tissue from each dorsal root ganglion was removed and cut into 2-3 explants using a scalpel, and the explants were planted in wells of a 96-well plate coated with 100 ng/mL Matrigel (Corning). 100 µL of DRG culture medium (Neurobasal medium (Gibco) containing 2% B-27 (Gibco), 1% GlutaMax (Gibco), and 10 ng/mL NGF (MCE)) was added, then cultured in a 37°C incubator for one week, with medium change on day 4, and experiments were performed on day 8.
0.1 µL of 10 mM test compound was dissolved in 100 µL DRG culture medium to prepare new culture medium containing 10 µM test compound. The culture medium in the 96-well plate was aspirated and new culture medium containing the test compound was added. Then the dorsal root ganglion explants were incubated with the medium in a 37°C incubator for 2 hours for pre-protection. After 2-hour pretreatment, a glass electrode was used to transect axons in the area near the tissue block, and bright-field images of axons in the same area were captured at 0 hour and 24 hours post axonal degeneration using a 20x objective lens of a microscope (Olympus). Axonal integrity was evaluated using an in-house developed script.

| IC50 ([1]; read-out: IC50) [nM] | SMILES | Degree of Protection Against Axonal Wallerian Degeneration [2] | IC50 [1] [nM] |
| --- | --- | --- | --- |
| < 100 | O=C(CNc1ccc(F)cc1)Nc1ccc2c(c1)COc1cnccc1-2 [Compound 75] | B (partial protection (B): 20% to 50%) | – |
| 100 to 1000 | O=C(CC1CCc2ccccc21)Nc1ccc2c(c1)COc1cnccc1-2 (stereo not shown) [Compound 76] | A (substantial protection (A) >50%) | – |
| – | Fc1ccc(CNC(=S)Nc2ccc3c(c2)COc2cnccc2-3)cc1 [Compound 77, 1-(4-fluorobenzyl)-3-(6H-isochromeno[3,4-c]pyridin-8-yl)thiourea] | B (partial protection (B): 20% to 50%) | < 100 |
| 100 to 1000 | COc1ccc(CCC(=O)Nc2ccc3c(c2)COc2cnccc2-3)cc1 [Compound 78] | A (substantial protection (A) >50%) | – |
| < 100 | O=C(CCc1c(F)c(F)c(F)c(F)c1F)Nc1ccc2c(c1)COc1cnccc1-2 [Compound 80] | A (substantial protection (A) >50%) | – |
| < 100 | O=C(CCc1ccc(Cl)cc1)Nc1cnc2c(c1)COc1cnccc1-2 [Compound 84] | B (partial protection (B): 20% to 50%) | – |
| < 100 | O=C(CCc1ccc(F)c(F)c1)Nc1cnc2c(c1)COc1cnccc1-2 [Compound 87] | A (substantial protection (A) >50%) | – |
| < 100 | O=C(CCc1ccc(F)cc1)Nc1cnc2c(c1)COc1cnccc1-2 [Compound 91, 3-(4-fluorophenyl)-N-(5H-pyrano[4,5-b:2,3-c']dipyridin-3-yl)propanamide] | A (substantial protection (A) >50%) | – |
| < 100 | O=C(CCc1cccc(F)c1)Nc1cnc2c(c1)COc1cnccc1-2 [Compound 94] | A (substantial protection (A) >50%) | – |
| < 100 | O=C(CCc1ccccc1)Nc1cnc2c(c1)COc1cnccc1-2 [Compound 95] | B (partial protection (B): 20% to 50%) | – |
| < 100 | O=C(CCc1cc(F)cc(F)c1)Nc1cnc2c(c1)COc1cnccc1-2 [Compound 96] | A (substantial protection (A) >50%) | – |
| < 100 | O=C(NCc1ccc(F)cc1)Nc1cnc2c(c1)COc1cnccc1-2 [Compound 101, 1-(4-fluorobenzyl)-3-(5H-pyrano[4,5-b:2,3-c']dipyridin-3-yl)urea] | A (substantial protection (A) >50%) | – |
| < 100 | O=C(CCc1ccc(F)cc1)Nc1cc2c(cn1)-c1ccncc1OC2 [Compound 112, 3-(4-fluorophenyl)-N-(5H-pyrano[2,3-c:4,5-c']dipyridin-3-yl)propanamide] | A (substantial protection (A) >50%) | – |
| < 100 | O=C1C(Cc2ccc(F)cc2)CCN1c1cnc2c(c1)COc1cnccc1-2 (stereo not shown) [Compound 126] | A (substantial protection (A) >50%) | – |
| < 100 | O=C1C(Cc2ccc(F)cc2)CCN1c1cc2c(cn1)-c1ccncc1OC2 (stereo not shown) [Compound 128] | A (substantial protection (A) >50%) | – |
| < 100 | Cc1cncc2c1-c1ccc(NC(=O)CCc3ccc(F)cc3)cc1CO2 [Compound 130, 3-(4-fluorophenyl)-N-(1-methyl-6H-isochromeno[3,4-c]pyridin-8-yl)propanamide] | B (partial protection (B): 20% to 50%) | – |
| 100 to 1000 | CN1Cc2cnccc2-c2ccc(N3CCC(Cc4ccc(F)cc4)C3=O)cc2C1 (stereo not shown) [Compound 133] | B (partial protection (B): 20% to 50%) | – |
| 100 to 1000 | CN1Cc2cnccc2-c2ccc(NC(=O)CCc3ccc(F)cc3)cc2C1 [Compound 134] | B (partial protection (B): 20% to 50%) | – |
| 100 to 1000 | O=C(Nc1ccc2c(c1)COc1cnccc1-2)OCc1ccc(F)cc1 [Compound 135] | A (substantial protection (A) >50%) | – |
| < 100 | O=C(CCc1ccccc1F)Nc1ccc2c(c1)COc1cnccc1-2 [Compound 136] | A (substantial protection (A) >50%) | – |
| 100 to 1000 | O=C1C(Cc2ccc(F)cc2)CCCN1c1ccc2c(c1)COc1cnccc1-2 (stereo not shown) [Compound 137] | A (substantial protection (A) >50%) | – |
| < 100 | O=C(CCc1cccs1)Nc1ccc2c(c1)COc1cnccc1-2 [Compound 138] | A (substantial protection (A) >50%) | – |
| < 100 | [2H]C1(Cc2ccc(F)cc2)CCN(c2ccc3c(c2)COc2cnccc2-3)C1=O (stereo not shown) [Compound 139, 3-(4-fluorobenzyl)-1-(6H-isochromeno[3,4-c]pyridin-8-yl)pyrrolidin-2-one-3d] | A (substantial protection (A) >50%) | – |
| 100 to 1000 | O=C(CCc1ccc(F)cc1)Nc1ccc2c(c1)COc1cncc(Cl)c1-2 [Compound 140] | B (partial protection (B): 20% to 50%) | – |
| 100 to 1000 | O=C1C(Cc2ccc(F)cc2)CN1c1ccc2c(c1)COc1cnccc1-2 (stereo not shown) [Compound 142, 3-(4-fluorobenzyl)-1-(6H-isochromeno[3,4-c]pyridin-8-yl)azetidin-2-one] | A (substantial protection (A) >50%) | – |
| < 100 | [2H]C1(Cc2ccc(F)cc2)CCN(c2ccc3c(c2)C([2H])([2H])Oc2cnccc2-3)C1=O (stereo not shown) [Compound 143, 3-(4-fluorobenzyl)-1-(6H-isochromeno[3,4-c]pyridin-8-yl-6,6-d2)pyrrolidin-2-one-3d] | A (substantial protection (A) >50%) | – |
| < 100 | [2H]C1Oc2cnccc2-c2ccc(N3CCC(Cc4ccc(F)cc4)C3=O)cc21 (stereo not shown) [Compound 145, 3-(4-fluorobenzyl)-1-(6H-isochromeno[3,4-c]pyridin-8-yl-6-d)pyrrolidin-2-one] | A (substantial protection (A) >50%) | – |
| < 100 | [2H]C1([2H])Oc2cnccc2-c2ccc(N3CCC(Cc4ccc(F)cc4)C3=O)cc21 (stereo not shown) [Compound 146, 3-(4-fluorobenzyl)-1-(6H-isochromeno[3,4-c]pyridin-8-yl-6,6-d2)pyrrolidin-2-one] | A (substantial protection (A) >50%) | – |
| < 100 | CC1Oc2cnccc2-c2ccc(N3CCC(Cc4ccc(F)cc4)C3=O)cc21 (stereo not shown) [Compound 147, 3-(4-fluorobenzyl)-1-(6-methyl-6H-isochromeno[3,4-c]pyridin-8-yl)pyrrolidin-2-one] | A (substantial protection (A) >50%) | – |
